≈ marks a conversion by molar mass, not a printed value. Read-outs that look alike come from different tables or passages of the source. Positions of bridges follow the written chain, without caps; N, C: chain ends. Non-standard residues stand in square brackets, D forms with d. Residues, ends and D or L forms follow the SMILES beside them. *: point of attachment. Isonicotinoyl(2-Ph) = O=C(c1ccnc(-c2ccccc2)c1)*; Benzoyl(4-OPh) = O=C(c1ccc(Oc2ccccc2)cc1)*; Benzoyl(4-Ph) = O=C(c1ccc(-c2ccccc2)cc1)*; Decanoyl(3R-OH) = CCCCCCC[C@@H](O)CC(=O)*; dOrn = NCCC[C@@H](N)C(=O)O; dDab = NCC[C@@H](N)C(=O)O; dDap = NC[C@@H](N)C(=O)O; Dab = NCC[C@H](N)C(=O)O; X5 = O=C(CCCCCCCO)*
How the values were obtained:
in vitro [1] = conditions: human
Summary of the method: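 Fluorescence read-out (excitation 560, emission 590) after a 2 h, 37 °C incubation with 5 μM resazurin, following 24 h compound treatment of cells plated at 4000 per well. CC50 values come from fitting dose–response curves of growth inhibition.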

[2] = test system: S. aureus ATCC 25923, MSSA
Summary of the method: (§1)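 Mid-log cultures grown in Mueller Hinton broth at 37° C were tested by 2-fold broth microdilution at 5×10^5 CFU/mL final. Compounds were dissolved in water and tested over a final range of 32 to 0.015 μg/mL.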

[3] = test system: K. pneumoniae GN_102 PmxR
Summary of the method: as §1

[4] = test system: P. aeruginosa GN_105, PmxR
Summary of the method: as §1

[5] = test system: K. pneumoniae ATCC 700603, MDR
Summary of the method: as §1

A. baumannii GN_093 PmxR = test system: A. baumannii GN_093 PmxR
Summary of the method: as §1

K. pneumoniae ATCC 13883 = test system: K. pneumoniae ATCC 13883
Summary of the method: as §1

P. aeruginosa ATCC 27853 = test system: P. aeruginosa ATCC 27853
Summary of the method: as §1

[6] = test system: P. aeruginosa GN_043, PmxR; conditions: P. aeruginosa GN_043, PmxR
Summary of the method: as §1

[7] = test system: K. pneumoniae GN_106, PmxR
Summary of the method: as §1

A. baumannii ATCC 19606 = test system: A. baumannii ATCC 19606
Summary of the method: as §1

[8] = test system: K. pneumoniae ATCC BAA-2146, NDM-1 pos
Summary of the method: as §1

E. coli ATCC 25922 = test system: E. coli ATCC 25922
Summary of the method: as §1

in vitro [9] = conditions: human; remark: listed apart in the source
Summary of the method: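 HK2 cells were seeded at 2000 per well in DMEM/F12 with 10% FBS and left to attach for 24 h at 37 °C, 5% CO2. They were then exposed for 24 h to 3-fold peptide dilutions starting from 600 μM solutions in quadruplicate. LDH release was read at 450 nm, and CC50 was fitted from dose-response curves.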

in vitro [10] = conditions: human; remark: listed apart in the source
Procedure: Cytotoxicity of the synthesised peptides was evaluated by comparison with commercially available colistin (polymyxin E), polymyxin B (Sigma chemical Co., St. Louis, Mo., U.S.A.) and synthetic octapeptin C4 by conducting lactate dehydrogenase (LDH) assay. CC50 values calculated based on curve fitting of dose dependent inhibition of cell growth represented the cytotoxicity of the peptide. Human kidney 2 (HK2) cells were seeded as 2000 cells per well in a 384 well cell culture plate in a final volume of 20 μL in DMEM/F12 medium (Invitrogen #11330057), in which 10% of FBS was added. Cells were incubated for 24 hours at 37° C., 5% CO2 to allow cells to attach to the plates. Similar conditions were employed for HEK293 and HepG2 cytotoxicity assays.
Cytotoxicity to HEK293 and HepG2 cells was determined using the resazurin assay (McMillian, M. K.; Li, L.; Parker, J. B.; Patel, L.; Zhong, Z.; Gunnett, J. W.; Powers, W. J.; Johnson, M. D. An improved resazurin-based cytotoxicity assay for hepatic cells; Cell Biol. Toxicol. 2002, 18, 157-173; O'Brien, J.; Wilson, I.; Orton, T.; Pognan, F. Investigation of the Alamar Blue (resazurin) fluorescent dye for the assessment of mammalian cell cytotoxicity. Eur. J. Biochem. 2000, 267, 5421-5426). In brief, HEK293 and HepG2 cells were seeded at 4000 cells/well in black-wall, clear-bottom 384-well plates (Corning, Australia) and incubated for 24 h at 37° C., 5% CO2. Compounds were then added into each well. After 24 h incubation, 5 μM resazurin was added per well and incubated at 37° C. for 2 h. Fluorescence intensity was then read using a Polarstar Omega with excitation/emission 560/590. The data was then analyzed using GraphPad Prism 6 software. CC50 values were determined using GraphPad Prism 6 software (Inc. La Jolla, Calif.).

SMILES	CC50 at 24 h (in vitro [1]) [µM]	MIC S. aureus ATCC 25923, MSSA ([2]; ATCC 25923) [µg/mL]	MIC K. pneumoniae GN_102 PmxR ([3]; GN 102 PmxR) [µg/mL]	MIC P. aeruginosa GN_105, PmxR ([4]; GN 105, PmxR) [µg/mL]	MIC K. pneumoniae ATCC 700603, MDR ([5]; ATCC 700603) [µg/mL]	MIC A. baumannii GN_093 PmxR (A. baumannii GN_093 PmxR; GN 093 PmxR) [µg/mL]	MIC K. pneumoniae ATCC 13883 (K. pneumoniae ATCC 13883; ATCC 13883) [µg/mL]	MIC P. aeruginosa ATCC 27853 (P. aeruginosa ATCC 27853; ATCC 27853) [µg/mL]	MIC P. aeruginosa GN_043, PmxR [6] [µg/mL]	MIC K. pneumoniae GN_106, PmxR ([7]; GN 106, PmxR) [µg/mL]	MIC A. baumannii ATCC 19606 (A. baumannii ATCC 19606; ATCC 19606) [µg/mL]	MIC K. pneumoniae ATCC BAA-2146, NDM-1 pos ([8]; ATCC BAA-2146) [µg/mL]	MIC E. coli ATCC 25922 (E. coli ATCC 25922; ATCC 25922) [µg/mL]	CC50 at 24 h (in vitro [9]) [µM]	CC50 at 24 h (in vitro [10]) [µM]	also measured
CCCCCCC[C@@H](O)CC(=O)N[C@H](CN)C(=O)N[C@H]1CCNC(=O)[C@H](CC(C)C)NC(=O)[C@H](CCN)NC(=O)[C@H](CCN)NC(=O)[C@H](Cc2ccccc2)NC(=O)[C@@H](CC(C)C)NC(=O)[C@H](CCN)NC1=O [compound 6427, 3(R)OH-nC9CO-D-Dap-cyc[L-Dab-L-Dab-D-Leu-L-Phe-L-Dab-L-Dab-L-Leu]] ({Decanoyl(3R-OH)}-[dDap][Dab][Dab][dL]F[Dab][Dab]L; lactam 2-C)	> 300	32 (≈ 31.1 µM)	4 (≈ 3.88 µM)	2 (≈ 1.94 µM)	8 (≈ 7.76 µM)	16 (≈ 15.5 µM)	8 (≈ 7.76 µM)	4 (≈ 3.88 µM)	4 (≈ 3.88 µM)	4 (≈ 3.88 µM)	8 (≈ 7.76 µM)	8 (≈ 7.76 µM)	8 (≈ 7.76 µM)	123	> 300	–
CCCCCCC[C@@H](O)CC(=O)N[C@H](CCCN)C(=O)N[C@H]1CCNC(=O)[C@H](CC(C)C)NC(=O)[C@H](CCN)NC(=O)[C@H](CCN)NC(=O)[C@H](Cc2ccccc2)NC(=O)[C@@H](CC(C)C)NC(=O)[C@H](CCN)NC1=O [compound 6428, 3(R)OH-nC9CO-D-Orn-cyc[L-Dab-L-Dab-D-Leu-L-Phe-L-Dab-L-Dab-L-Leu]] ({Decanoyl(3R-OH)}-[dOrn][Dab][Dab][dL]F[Dab][Dab]L; lactam 2-C)	> 300	32 (≈ 30.2 µM)	2 (≈ 1.89 µM)	4 (≈ 3.78 µM)	8 (≈ 7.56 µM)	16 (≈ 15.1 µM)	16 (≈ 15.1 µM)	4 (≈ 3.78 µM)	4 (≈ 3.78 µM)	4 (≈ 3.78 µM)	32 (≈ 30.2 µM)	16 (≈ 15.1 µM)	16 (≈ 15.1 µM)	137	> 300	–
CC(C)C[C@@H]1NC(=O)[C@H](CCN)NC(=O)[C@H](CCN)NC(=O)[C@H](Cc2ccccc2)NC(=O)[C@@H](CC(C)C)NC(=O)[C@H](CCN)NC(=O)[C@@H](NC(=O)[C@@H](CCN)NC(=O)CCCCCCCO)CCNC1=O [compound 6514, 8OH-nC7CO-D-Dab-cyc[L-Dab-L-Dab-D-Leu-L-Phe-L-Dab-L-Dab-L-Leu]] (X5-[dDab][Dab][Dab][dL]F[Dab][Dab]L; lactam 2-C)	> 300	–	–	–	–	–	–	–	4 (≈ 3.94 µM)	–	–	–	–	> 300	> 300	MIC S. aureus ATCC 25923, MSSA ([2]; S. aureus ATCC 25923, MSSA): >32 µg/mL; MIC K. pneumoniae GN_102 PmxR ([3]; K. pneumoniae GN_102 PmxR): >32 µg/mL; MIC P. aeruginosa GN_105, PmxR ([4]; P. aeruginosa GN_105, PmxR): >32 µg/mL; MIC K. pneumoniae ATCC 700603, MDR ([5]; K. pneumoniae ATCC 700603, MDR): >32 µg/mL; MIC A. baumannii GN_093 PmxR (A. baumannii GN_093 PmxR; A. baumannii GN_093 PmxR): >32 µg/mL; MIC K. pneumoniae ATCC 13883 (K. pneumoniae ATCC 13883; K. pneumoniae ATCC 13883): >32 µg/mL; MIC P. aeruginosa ATCC 27853 (P. aeruginosa ATCC 27853; P. aeruginosa ATCC 27853): 8 µg/mL (≈ 7.87 µM); MIC K. pneumoniae GN_106, PmxR ([7]; K. pneumoniae GN_106, PmxR): >32 µg/mL; MIC A. baumannii ATCC 19606 (A. baumannii ATCC 19606; A. baumannii ATCC 19606): >32 µg/mL; MIC K. pneumoniae ATCC BAA-2146, NDM-1 pos ([8]; K. pneumoniae ATCC BAA-2146, NDM-1 pos): >32 µg/mL; MIC E. coli ATCC 25922 (E. coli ATCC 25922; E. coli ATCC 25922): >32 µg/mL
CC(C)C[C@@H]1NC(=O)[C@H](CCN)NC(=O)[C@H](CCN)NC(=O)[C@H](Cc2ccccc2)NC(=O)[C@@H](CC(C)C)NC(=O)[C@H](CCN)NC(=O)[C@@H](NC(=O)[C@@H](CCN)NC(=O)c2ccnc(-c3ccccc3)c2)CCNC1=O [compound 6517, 3Phe4-PyCO-D-Dab-cyc[L-Dab-L-Dab-D-Leu-L-Phe-L-Dab-L-Dab-L-Leu]] ({Isonicotinoyl(2-Ph)}-[dDab][Dab][Dab][dL]F[Dab][Dab]L; lactam 2-C)	> 300	>32	>32	4 (≈ 3.79 µM)	8 (≈ 7.58 µM)	>32	32 (≈ 30.3 µM)	2 (≈ 1.9 µM)	1 (≈ 0.948 µM)	32 (≈ 30.3 µM)	>32	32 (≈ 30.3 µM)	8 (≈ 7.58 µM)	> 300	> 300	–
CC(C)C[C@@H]1NC(=O)[C@H](CCN)NC(=O)[C@H](CCN)NC(=O)[C@H](Cc2ccccc2)NC(=O)[C@@H](CC(C)C)NC(=O)[C@H](CCN)NC(=O)[C@@H](NC(=O)[C@@H](CCN)NC(=O)c2ccc(-c3ccccc3)cc2)CCNC1=O [compound 6518, Ph-4-PhCO-D-Dab-cyc[L-Dab-L-Dab-D-Leu-L-Phe-L-Dab-L-Dab-L-Leu]] ({Benzoyl(4-Ph)}-[dDab][Dab][Dab][dL]F[Dab][Dab]L; lactam 2-C)	> 300	32 (≈ 30.4 µM)	>32	2 (≈ 1.9 µM)	8 (≈ 7.59 µM)	>32	16 (≈ 15.2 µM)	2 (≈ 1.9 µM)	2 (≈ 1.9 µM)	32 (≈ 30.4 µM)	>32	16 (≈ 15.2 µM)	2 (≈ 1.9 µM)	180	≥ 300	–
CC(C)C[C@@H]1NC(=O)[C@H](CCN)NC(=O)[C@H](CCN)NC(=O)[C@H](Cc2ccccc2)NC(=O)[C@@H](CC(C)C)NC(=O)[C@H](CCN)NC(=O)[C@@H](NC(=O)[C@@H](CCN)NC(=O)c2ccc(Oc3ccccc3)cc2)CCNC1=O [compound 6519, Ph-4-OPhCO-D-Dab-cyc[L-Dab-L-Dab-D-Leu-L-Phe-L-Dab-L-Dab-L-Leu]] ({Benzoyl(4-OPh)}-[dDab][Dab][Dab][dL]F[Dab][Dab]L; lactam 2-C)	> 300	32 (≈ 29.9 µM)	>32	4 (≈ 3.74 µM)	8 (≈ 7.47 µM)	32 (≈ 29.9 µM)	16 (≈ 14.9 µM)	2 (≈ 1.87 µM)	1 (≈ 0.934 µM)	32 (≈ 29.9 µM)	>32	16 (≈ 14.9 µM)	2 (≈ 1.87 µM)	163	> 300	–

From US11279733B2, “Peptide antibiotics” (priority 2017, dated 2022)
